According to ChEMBL document CHEMBL6177932 (J Med Chem, 2024):
Blank lines part the entries; values can stand above or below the molecule they belong to. Calls of active or inactive are those of the source. The calls are words filed in the database; no cut-off is given here.

What was measured:
[1] = Toxicity in 4T1 cells implanted BALB/c mouse assessed as stress at 0.25 ug/kg, ip administered daily for 18 days in presence of SAHA; format: organism-based; settings: in vivo, 0.00025 mg/kg, 432 h, dose 0.25 µg/kg, time 18 day
[2] = tested on: Mus musculus; assay: Immunomodulatory activity in mouse 4T1 cells implanted BALB/c mouse assessed as reduction in Ccl2 gene expression at 0.25 ug/kg, ip administered daily for 18 days by RT-qPCR analysis; format: functional, organism-based; settings: dose 0.25 µg/kg, time 18.0 day
[3] = Toxicity in 4T1 cells implanted BALB/c mouse assessed as stress at 0.25 ug/kg, ip administered daily for 18 days; format: organism-based; settings: in vivo, 0.00025 mg/kg, 432 h, dose 0.25 µg/kg, time 18 day
[4] = tested on: Mus musculus; assay: Immunomodulatory activity in mouse 4T1 cells implanted BALB/c mouse assessed as induction of Il1a gene expression at 0.25 ug/kg, ip administered daily for 18 days by RT-qPCR analysis; format: functional, organism-based; settings: dose 0.25 µg/kg, time 18.0 day
[5] = Toxicity in mouse B16-F10 cells implanted C57BL/6 mouse assessed as effect on body weight at 0.25 ug/kg, ip administered daily for 28 days in presence of SAHA; format: organism-based; settings: in vivo, 0.00025 mg/kg, dose 0.25 µg/kg, time 28 day
[6] = tested on: 4T1; assay: Antitumor activity against mouse 4T1 cells implanted in BALB/c mouse assessed as reduction in tumor burden at 0.25 ug/kg, ip administered daily for 18 days in presence of SAHA relative to control; format: functional; parameters: scale not given: the % may be the effect or the level left; settings: dose 0.25 µg/kg, time 18 day
[7] = tested on: 4T1; assay: Cytotoxicity against mouse 4T1 cells assessed as reduction in cell viability at 100 nM measured after 24 hrs by RealTime-glo cell viability assay; format: functional, cell-based
[8] = Toxicity in mouse B16-F10 cells implanted C57BL/6 mouse at 0.25 ug/kg, ip administered daily for 28 days; format: organism-based; settings: in vivo, 0.00025 mg/kg, dose 0.25 µg/kg, time 28 day
[9] = Toxicity in 4T1 cells implanted BALB/c mouse assessed as body weight loss at 0.25 ug/kg, ip administered daily for 18 days in presence of SAHA; format: organism-based; settings: in vivo, 0.00025 mg/kg, 432 h, dose 0.25 µg/kg, time 18 day
[10] = Toxicity in 4T1 cells implanted BALB/c mouse assessed as body weight loss at 0.25 ug/kg, ip administered daily for 18 days; format: organism-based; settings: in vivo, 0.00025 mg/kg, 432 h, dose 0.25 µg/kg, time 18 day
[11] = tested on: Mus musculus; assay: Immunomodulatory activity in mouse 4T1 cells implanted BALB/c mouse assessed as reduction in Ccl20 gene expression at 0.25 ug/kg, ip administered daily for 18 days by RT-qPCR analysis; format: functional, organism-based; settings: dose 0.25 µg/kg, time 18.0 day
[12] = tested on: Mus musculus; assay: Immunomodulatory activity in mouse 4T1 cells implanted BALB/c mouse assessed as reduction in Ccl5 gene expression at 0.25 ug/kg, ip administered daily for 18 days by RT-qPCR analysis; format: functional, organism-based; settings: dose 0.25 µg/kg, time 18.0 day
[13] = tested on: MDA-MB-231; assay: Cytotoxicity against human MDA-MB-231 cells assessed as reduction in cell viability at 100 nM measured after 24 hrs by RealTime-glo cell viability assay; format: functional, cell-based
[14] = tested on: B16-F10; assay: Antitumor activity against mouse B16-F10 cells implanted in C57BL/6 mouse assessed as reduction in tumor burden at 0.25 ug/kg, ip administered every second day for 18 days in presence of SAHA; format: functional, organism-based; settings: dose 0.25 µg/kg, time 18.0 day
[15] = tested on: Mus musculus; assay: Immunomodulatory activity in mouse 4T1 cells implanted BALB/c mouse assessed as reduction in Cxcl10 gene expression at 0.25 ug/kg, ip administered daily for 18 days by RT-qPCR analysis; format: functional, organism-based; settings: dose 0.25 µg/kg, time 18.0 day
[16] = tested on: Mus musculus; assay: Immunomodulatory activity in mouse 4T1 cells implanted BALB/c mouse assessed as reduction in total macrophage infiltration into tumors at 0.25 ug/kg, ip administered daily for 18 days by F4/80 staining based immunofluorescence microscopy; format: functional, organism-based; settings: dose 0.25 µg/kg, time 18.0 day
[17] = tested on: 4T1; assay: Cytotoxicity against mouse 4T1 cells assessed as reduction in cell viability at 100 nM measured after 24 hrs in presence of SAHA by RealTime-glo cell viability assay; format: functional, cell-based
[18] = tested on: B16-F10; assay: Antitumor activity against mouse B16-F10 cells implanted in C57BL/6 mouse assessed as reduction in tumor burden at 0.25 ug/kg, ip administered every second day for 18 days; format: functional, organism-based; settings: dose 0.25 µg/kg, time 18.0 day
[19] = Toxicity in mouse B16-F10 cells implanted C57BL/6 mouse assessed as effect on body weight at 0.25 ug/kg, ip administered daily for 28 days; format: organism-based; settings: in vivo, 0.00025 mg/kg, dose 0.25 µg/kg, time 28 day
[20] = Toxicity in mouse B16-F10 cells implanted C57BL/6 mouse at 0.25 ug/kg, ip administered daily for 28 days in presence of SAHA; format: organism-based; settings: in vivo, 0.00025 mg/kg, dose 0.25 µg/kg, time 28 day
[21] = tested on: MDA-MB-231; assay: Cytotoxicity against human MDA-MB-231 cells assessed as reduction in cell viability at 100 nM measured after 24 hrs in presence of SAHA by RealTime-glo cell viability assay; format: functional, cell-based
[22] = tested on: 4T1; assay: Cytotoxicity against mouse 4T1 cells assessed as reduction in cell viability at 100 nM measured after 24 hrs in presence of 1,25D by RealTime-glo cell viability assay; format: functional, cell-based
[23] = molecular target: T1, Protein deacetylase HDAC6 (Mus musculus) (UniProt Q9Z2V5); assay: Inhibition of HDAC6 in mouse 4T1 cells assessed as induction of tubulin acetylation at 100 nM measured after 6 hrs by Western blot analysis; format: cell-based
T1 sequence (whole entry): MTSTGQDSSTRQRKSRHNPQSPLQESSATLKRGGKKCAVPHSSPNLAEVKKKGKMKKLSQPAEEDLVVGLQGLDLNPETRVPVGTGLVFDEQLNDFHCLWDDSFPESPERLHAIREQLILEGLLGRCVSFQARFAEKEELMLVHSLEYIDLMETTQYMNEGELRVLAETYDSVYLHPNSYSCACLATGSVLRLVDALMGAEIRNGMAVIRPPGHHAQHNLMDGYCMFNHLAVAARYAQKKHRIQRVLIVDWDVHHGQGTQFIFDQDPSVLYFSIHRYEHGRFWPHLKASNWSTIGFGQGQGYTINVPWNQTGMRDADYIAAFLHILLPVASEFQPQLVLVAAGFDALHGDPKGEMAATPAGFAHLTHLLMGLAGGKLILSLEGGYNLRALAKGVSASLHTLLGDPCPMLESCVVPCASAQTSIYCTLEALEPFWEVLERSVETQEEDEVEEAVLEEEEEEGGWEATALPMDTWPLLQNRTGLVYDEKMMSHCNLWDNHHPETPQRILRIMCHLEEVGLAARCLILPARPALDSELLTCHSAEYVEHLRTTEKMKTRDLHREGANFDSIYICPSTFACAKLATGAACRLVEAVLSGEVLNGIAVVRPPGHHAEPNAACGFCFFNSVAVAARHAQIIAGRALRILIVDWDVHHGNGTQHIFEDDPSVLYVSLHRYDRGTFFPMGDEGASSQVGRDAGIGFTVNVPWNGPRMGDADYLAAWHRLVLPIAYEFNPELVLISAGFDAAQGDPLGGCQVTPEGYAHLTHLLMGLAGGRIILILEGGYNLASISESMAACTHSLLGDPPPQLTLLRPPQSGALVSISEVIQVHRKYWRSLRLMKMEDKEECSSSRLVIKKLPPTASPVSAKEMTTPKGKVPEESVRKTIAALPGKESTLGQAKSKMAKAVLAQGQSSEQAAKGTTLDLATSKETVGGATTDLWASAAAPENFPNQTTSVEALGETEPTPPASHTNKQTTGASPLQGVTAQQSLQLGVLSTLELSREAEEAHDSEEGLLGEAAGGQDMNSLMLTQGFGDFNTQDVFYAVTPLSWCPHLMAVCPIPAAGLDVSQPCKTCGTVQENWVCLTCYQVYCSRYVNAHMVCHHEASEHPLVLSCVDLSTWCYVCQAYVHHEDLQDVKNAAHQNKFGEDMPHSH

[24] = Toxicity in mouse B16-F10 cells implanted C57BL/6 mouse at 80 mg/kg, ip administered daily for 28 days in presence of 1,25D; format: organism-based; settings: in vivo, time 28 day
[25] = tested on: B16-F10; assay: Antitumor activity against mouse B16-F10 cells implanted in C57BL/6 mouse assessed as reduction in tumor burden at 80 mg/kg, ip administered every second day for 18 days in presence of 1,25D; format: functional, organism-based; settings: time 18.0 day
[26] = molecular target: T1, Protein deacetylase HDAC6 (Mus musculus); assay: Inhibition of HDAC6 in mouse B16-F10 cells assessed as induction of tubulin acetylation at 100 nM measured after 6 hrs by Western blot analysis; format: cell-based
[27] = Toxicity in 4T1 cells implanted BALB/c mouse assessed as body weight loss at 80 mg/kg, ip administered daily for 18 days in presence of 1,25D; format: organism-based; settings: in vivo, 432 h, time 18 day
[28] = Toxicity in mouse B16-F10 cells implanted C57BL/6 mouse at 80 mg/kg, ip administered daily for 28 days; format: organism-based; settings: in vivo, time 28 day
[29] = molecular target: T2, Vitamin D3 receptor (Mus musculus) (UniProt P48281); assay: Agonist activity at VDR in mouse B16-F10 cells assessed as induction of Cyp24a1 gene at 100 nM measured after 24 hrs in presence of 1,25D by RT-qPCR analysis; format: cell-based; settings: filed as agonist
T2 sequence (whole entry): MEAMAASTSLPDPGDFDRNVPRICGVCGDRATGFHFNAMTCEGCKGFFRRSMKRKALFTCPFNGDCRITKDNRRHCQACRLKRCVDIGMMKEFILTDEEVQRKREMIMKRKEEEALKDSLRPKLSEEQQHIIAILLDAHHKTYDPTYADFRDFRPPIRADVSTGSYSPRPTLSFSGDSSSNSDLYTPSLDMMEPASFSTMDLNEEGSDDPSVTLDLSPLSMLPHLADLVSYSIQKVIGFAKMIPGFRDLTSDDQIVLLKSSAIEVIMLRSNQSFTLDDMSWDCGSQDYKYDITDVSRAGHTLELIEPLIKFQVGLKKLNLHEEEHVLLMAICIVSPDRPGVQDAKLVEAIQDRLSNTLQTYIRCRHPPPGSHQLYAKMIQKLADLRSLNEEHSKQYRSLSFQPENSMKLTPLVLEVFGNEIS

[30] = Toxicity in 4T1 cells implanted BALB/c mouse assessed as stress at 80 mg/kg, ip administered daily for 18 days in presence of 1,25D; format: organism-based; settings: in vivo, 432 h, time 18 day
[31] = tested on: MDA-MB-231; assay: Cytotoxicity against human MDA-MB-231 cells assessed as reduction in cell viability at 100 nM measured after 24 hrs in presence of 1,25D by RealTime-glo cell viability assay; format: functional, cell-based
[32] = tested on: Mus musculus; assay: Immunomodulatory activity in mouse 4T1 cells implanted BALB/c mouse assessed as reduction in total macrophage infiltration into tumors at 80 mg/kg, ip administered daily for 18 days by F4/80 staining based immunofluorescence microscopy; format: functional, organism-based; settings: time 18.0 day
[33] = Toxicity in 4T1 cells implanted BALB/c mouse assessed as body weight loss at 80 mg/kg, ip administered daily for 18 days; format: organism-based; settings: in vivo, 432 h, time 18 day
[34] = Toxicity in mouse B16-F10 cells implanted C57BL/6 mouse assessed as effect on body weight at 80 mg/kg, ip administered daily for 28 days in presence of 1,25D; format: organism-based; settings: in vivo, time 28 day
[35] = Toxicity in 4T1 cells implanted BALB/c mouse assessed as stress at 80 mg/kg, ip administered daily for 18 days; format: organism-based; settings: in vivo, 432 h, time 18 day
[36] = tested on: B16-F10; assay: Antitumor activity against mouse B16-F10 cells implanted in C57BL/6 mouse assessed as reduction in tumor burden at 80 mg/kg, ip administered every second day for 18 days; format: functional, organism-based; settings: time 18.0 day
[37] = Toxicity in mouse B16-F10 cells implanted C57BL/6 mouse assessed as effect on body weight at 80 mg/kg, ip administered daily for 28 days; format: organism-based; settings: in vivo, time 28 day
[38] = tested on: 4T1; assay: Antitumor activity against mouse 4T1 cells implanted in BALB/c mouse assessed as reduction in tumor burden at 80 mg/kg, ip administered daily for 18 days in presence of 1,25D relative to control; format: functional; parameters: scale not given: the % may be the effect or the level left; settings: time 18 day

SMILES: C=C1/C(=C\C=C2/CCC[C@]3(C)[C@@H]([C@H](C)CCCC(C)(C)O)CC[C@@H]23)C[C@@H](O)C[C@@H]1O [CALCITRIOL]
Activity [1]: Non-toxic
Activity [2]: Active
Activity [3]: Non-toxic
Activity [4]: Active
Activity [5]: Non-toxic
Activity [6]: ~20%
Activity [7]: Active
Activity [8]: Non-toxic
Activity [9]: Non-toxic
Activity [10]: Non-toxic
Activity [11]: Active
Activity [12]: Active
Activity [13]: Active
Activity [14]: Active
Activity [15]: Active
Activity [16]: Active; Significantly Reduced Macrophage Infiltration Into Tumor
Activity [17]: Active
Activity [18]: Active
Activity [19]: Non-toxic
Activity [20]: Non-toxic
Activity [21]: Active

inhibition [23]: Active
inhibition [26]: Active
Activity [29]: Active
SMILES: O=C(CCCCCCC(=O)Nc1ccccc1)NO [VORINOSTAT]
Activity [22]: Active
Activity [24]: Non-toxic
Activity [7]: Active
Activity [25]: Active
Activity [27]: Non-toxic
Activity [28]: Non-toxic
Activity [30]: Non-toxic
Activity [31]: Active
Activity [32]: Active; No Significant Effect Observed
Activity [13]: Active
Activity [33]: Non-toxic
Activity [34]: Non-toxic
Activity [35]: Non-toxic
Activity [36]: Active
Activity [37]: Non-toxic
Activity [38]: ~20%
